Assay results: BindingDB's records for patent US20240352046 (1Cbio, 2024)

Target: T1, Ectonucleotide pyrophosphatase/phosphodiesterase family member 1 (Homo sapiens, UniProt P22413)
T1 sequence (P22413 whole entry): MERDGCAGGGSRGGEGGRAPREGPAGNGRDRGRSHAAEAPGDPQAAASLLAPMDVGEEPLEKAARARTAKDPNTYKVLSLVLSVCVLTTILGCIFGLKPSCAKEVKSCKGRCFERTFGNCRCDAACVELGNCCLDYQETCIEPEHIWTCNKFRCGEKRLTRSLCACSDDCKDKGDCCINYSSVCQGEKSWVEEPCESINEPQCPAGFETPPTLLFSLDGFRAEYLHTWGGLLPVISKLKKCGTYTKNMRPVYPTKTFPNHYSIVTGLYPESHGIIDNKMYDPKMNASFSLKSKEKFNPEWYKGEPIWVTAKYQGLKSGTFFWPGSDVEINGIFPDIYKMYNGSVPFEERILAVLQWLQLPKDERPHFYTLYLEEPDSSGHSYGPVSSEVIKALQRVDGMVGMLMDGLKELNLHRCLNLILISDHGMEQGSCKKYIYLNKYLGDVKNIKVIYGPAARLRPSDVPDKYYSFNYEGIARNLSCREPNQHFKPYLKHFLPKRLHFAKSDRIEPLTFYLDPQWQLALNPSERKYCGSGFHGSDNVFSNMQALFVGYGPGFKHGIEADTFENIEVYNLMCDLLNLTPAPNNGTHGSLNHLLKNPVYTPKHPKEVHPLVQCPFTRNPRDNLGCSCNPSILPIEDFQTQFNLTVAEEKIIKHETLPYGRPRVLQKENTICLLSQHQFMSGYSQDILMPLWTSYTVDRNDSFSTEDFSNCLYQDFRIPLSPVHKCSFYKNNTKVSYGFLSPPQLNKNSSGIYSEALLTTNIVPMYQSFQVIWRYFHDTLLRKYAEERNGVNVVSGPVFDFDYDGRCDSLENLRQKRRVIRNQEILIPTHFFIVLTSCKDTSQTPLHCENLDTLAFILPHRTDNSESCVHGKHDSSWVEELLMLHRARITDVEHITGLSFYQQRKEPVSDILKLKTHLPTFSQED
Assay: ENPP1 Inhibition Assay
Protocol: Dose response curve for the compounds were prepared in duplicates with starting conc. at 5 μM and a three-fold titration was performed. The reaction buffer consisted of 50 mM Tris (pH 8.0), 0.5 mM CaCl2), 1 μM ZnCl2, 250 mM NaCl and 0.1 mg/ml BSA. […] The reaction was then stopped by heating at 90° C. for 3 minutes. […] Following 60 min incubation, 20 μL of detection mixture was added to the enzyme reaction bringing the final volume to 40 μL. The reaction was further incubated for 60 min at RT after which the plates were read using BioTek Plate reader.

IC50 [nM] | SMILES
793 | COc1ccc2c(N3CC(CCN(C)S(N)(=O)=O)C3)ncnc2c1 [US20240352046, Compound 1.40]
> 3000 | COc1ccc2c(N3CC(CCNS(N)(=O)=O)C3)nc(C3CC3)nc2c1 [US20240352046, Compound 1.42]
892 | COc1cc2nc(C(F)F)nc(N3CC(CCNS(N)(=O)=O)C3)c2cc1OC [US20240352046, Compound 1.43]
855 | COc1cc2ncnc(N3CC(CCN(C)S(N)(=O)=O)C3)c2cc1OC [US20240352046, Compound 1.47]
